# Measurements: patent US20090175845A1, “METHODS FOR IDENTIFYING COMPOUNDS THAT MODULATE PHB DOMAIN PROTEIN ACTIVITY AND COMPOSITIONS THEREOF” (THE TRUSTEES OF COLUMBIA UNIVERSITY IN THE CITY OF NEW YORK, priority 2005, published 2009)
# Assays:
# MEC-2 = assay: Detergent-resistant membrane (DRM) fractionation by density gradient centrifugation; assay type: cell-based, C. elegans; details: limited cholesterol depletion with MBCD, FIG. 1D
# Protocol: (§1) Preparation of Detergent-Resistant Membrane Domains and Cholesterol Measurement—For preparation of low-density Triton® X-100—insoluble membrane domains (DRM; LDF) HEK 293T cells were homogenized by 20 strokes in a Dounce homogenizer in 1 ml of MBS buffer (250 mM NaCl, 5 mM EDTA, 10 mM Tris, pH 7.4, proteinase inhibitors) in the presence of 1% Triton® X-100 and centrifuged for ten minutes at 3,000×g at 4° C. The lysates were incubated for 45 minutes on ice in the presence of 1% Triton® X-100, adjusted to 45% sucrose and pipetted at the bottom of an ultracentrifuge tube. Samples were then overlaid with a sucrose step gradient (2 ml of 30% sucrose and 1 ml of 5% sucrose in MBS) as described previously {Huber, 2003 #205}. Gradients were centrifuged for 20 hours at 200,000×g at 4° C. in a swing-out rotor, and seven fractions ([…] each) were collected starting from the top and analyzed by SDS-PAGE. Cholesterol was measured using the Amplex® Red Cholesterol Assay Kit (Molecular Probes).
# (§2) Cell Culture Studies. Most cell studies used HEK 293T cells that were grown in DMEM as described [Huber et al. (2001) J. Biol. Chem. 18:18]. Cholesterol-depleted cells were prepared by growing cells in DMEM with pravastatin (8 μM) for two days and then methyl-β-cyclodextrine (MBCD; 5 mM) for 30 minutes just before the experiment. […]
# Podocin [1] = assay: Multimerization by velocity gradient centrifugation; assay type: cell-based, mouse; details: limited cholesterol depletion of Podocin-expressing cells, FIG. 5B
# Protocol: PHB protein multimerization was studied by velocity gradient centrifugation and blue native gel electrophoresis [Schagger et al. (1991) Anal. Biochem. 199: 223-31]. For preparation of Podocin multimeric complexes HEK293T cells were lysed in 1 ml of Mes-buffered saline (MBS) in the presence of 1% Triton® X-100 and centrifuged for 10 minutes at 1,000×g at 4° C. After centrifugation, the supernatant was collected and SDS was added at a final concentration of 0.1% and incubated for 20 minutes on ice. Thereafter, the lysate was cleared by centrifugation for 15 minutes at 100,000×g. Four milliliters of a discontinuous sucrose gradient (40-5%) was layered on top of a 60% sucrose cushion in a Beckman ultracentrifuge tube. One milliliter of the cell lysate was adjusted with 1 ml of MBS, added on top of this gradient and subjected for centrifugation for 16 hours at 180,000×g at 4° C. in a Beckman SW-41 rotor. After centrifugation 2 ml of the supernatant were discarded and 8 fractions (500 μl each) were collected starting from the top and analyzed by SDS-PAGE.
# Previously it was shown that shown that Podocin homo-oligomerizes and forms high-molecular weight complexes by homophilic interactions that require the PHB-domain [Huber et al. (2003) Hum. Mol. Genet. 12:3397-405]. MEC-2 also homo-oligomerizes (infra) as do other PHB-domain proteins [Umlauf et al. (2006) J. Biol. Chem.]. […]
# HeLa-Cx43 cells = assay: Ca2+-FLIPR assay, histamine-induced calcium influx; assay type: cell-based; details: limited cholesterol depletion, FIG. 11D
# Protocol: Ca^2+-FLIPR Assay—HeLa-Cx43 cells were loaded with […] FLUO-4/AM and 0.04% Pluronic F-127 (both from Molecular Probes) in HBS but with 20 mM HEPES and 2.5 mM probenecid as described previously (20). After loading, cells were washed twice with HBS by an automated plate washer (Denley Cellwash, Labsystems) and transferred to the FLIPR (Molecular Devices). The FLIPR integrates an argon laser excitation source, a 96-well pipettor, and a detection system utilizing a CCD imaging camera. […] of 3× histamine concentrations were delivered within 2 seconds simultaneously to all of the wells containing […] of HBS. Fluorescence emissions from the 96-wells were monitored simultaneously at an emission wavelength of 515 nm after excitation with 488 nm (F488). Fluorescence data were collected at 0.25 Hertz, 48 seconds before and 8 minutes after stimulation, and analyzed off-line. Histamine response amplitudes were determined from the fluorescence at 3.2 minutes (peak of calcium influx) of the solvent control-subtracted and base-line-corrected traces, and averaged over 3-4 wells of same transfectants, receiving the same stimulus. EC50 values and curves were derived from fitting the function f(x)=(a−d)/(1+(x/C)nH)+d to the data by non-linear regression with a=minimum, d=maximum, C=EC50, and nH=Hill coefficient. […]
# Podocin [2] = molecular target: T1, Podocin (Mus musculus, UniProt Q91X05); assay: Detergent-resistant membrane (DRM) fractionation by density gradient centrifugation; assay type: cell-based; details: limited cholesterol depletion with MBCD; readdition of cholesterol, FIG. 1D
# T1 construct: expressed in transfected cells; host or cells: HEK 293T
# T1 sequence (Q91X05 1-385): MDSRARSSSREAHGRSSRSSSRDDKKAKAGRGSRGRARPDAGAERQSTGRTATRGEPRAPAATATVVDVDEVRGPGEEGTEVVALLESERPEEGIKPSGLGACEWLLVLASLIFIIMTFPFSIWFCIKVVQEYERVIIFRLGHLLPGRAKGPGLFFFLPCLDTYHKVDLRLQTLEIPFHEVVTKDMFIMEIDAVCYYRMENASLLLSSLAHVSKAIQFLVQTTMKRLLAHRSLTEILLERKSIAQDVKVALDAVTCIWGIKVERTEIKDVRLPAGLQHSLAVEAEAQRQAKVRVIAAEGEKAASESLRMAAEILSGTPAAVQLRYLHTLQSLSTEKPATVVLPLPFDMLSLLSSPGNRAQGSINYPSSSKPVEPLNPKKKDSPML
# Protocol: as §1, §2
substance,measurement,setting,value
methyl-β-cyclodextrin [MBCD],MEC-2 in DRM fractions,MEC-2,loss of Podocin and MEC-2 from the DRM fractions
same,formation of high-molecular weight complexes,Podocin [1],did not interfere
same,Podocin-dependent stimulation of Ca2+ influx,HeLa-Cx43 cells,abolished
same,Podocin in DRM fractions,Podocin [2],loss of Podocin and MEC-2 from the DRM fractions
